Source: paper PMC7844219, “Antifibrotic effect of novel neutrophil gelatinase-associated lipocalin inhibitors in cardiac and renal disease models” (Scientific Reports, 2021)

Key:
[1] = target: T1, hNGAL (Homo sapiens, UniProt P80188); experiment: Cell proliferation (MTT) in hNGAL-treated human cardiac fibroblasts; type: cell-based
T1 construct: purchased R&D Systems
Protocol: Primary human cardiac fibroblasts (HCF) were obtained from Promocell (Heidelberg, Germany) and maintained in Fibroblast Media 3 following manufacturer’s instructions (Promocell). Cells were used between passages 5 and 7. Cells were stimulated with recombinant hNGAL (500 ng/mL, R&D Systems) or with TGFβ (10 ng/mL, R&D Systems) for 24 h. To assess cell proliferation the MTT test was used following provider’s instructions (Roche). For protein analysis. Primary Mouse Kidney Fibroblasts (MKF) were isolated from Wild Type (WT) mice. Briefly, 8 weeks old mice were sacrificed by cervical dislocation and kidneys were cleaned and rinsed in cold DPBS (Dulbecco's Phosphate-Buffered Saline). The renal cortex was minced and incubated in Dulbecco’s modified eagle medium/Nutrient mixture F-12 (DMEM/F12, Sigma) containing 1 mg/mL collagenase A (Roche) during 25 min at 37 °C. The digestion was inactivated by adding culture medium (DMEM/F12 + 10% FBS) then the cell suspension was passed through a 100-μm cell strainer. After centrifugation, the pellet (containing MKF) was diluted with culture medium then plated in 75 cm^2 culture flask. After 24 h MKF were washed with DPBS before replacement of fresh culture medium. Thereafter, culture medium was changed every 48 h. Once 70–80% confluent, MKF were trypsinized and plated in 12 or 6-well plates. For experimental use, MKF were starved with culture medium containing only 3% FBS. MKF were treated with mNGAL (500 ng/mL, R&D Systems) or with TGFβ (10 ng/mL, R&D Systems) for 6 h for gene expression analysis.
Cell proliferation was assessed using the MTT Proliferation Assay (Sigma).

[2] = test system: CKD mouse model; experiment: Chronic kidney disease (CKD) mouse model, 5/6 (subtotal) nephrectomy; type: in vivo; parameters: Plasma creatinine level: unit not given here; conditions: CKD mice
Protocol: Animals were housed in a climate-controlled facility with a 12-h/12-h light/dark cycle and provided free access to food and water. Experiments were approved by the Darwin ethics committee of Sorbonne University, and conducted according to the INSERM animal care and use committee guidelines. The NGAL inhibitor GP1 was incorporated in regular chow (A04, Safe, Augy, France) at the dose of 625 mg GP1/kg of chow to achieve a low dose of 100 mg/kg/day of GP1 administered to the mice (based on a daily consumption of 4 g of chow).
LV hemodynamic was assessed as described previously. Briefly, mice were anesthetized (chloral 320 mg/kg, IP) and the carotid artery cannulated with a pressure–volume catheter (SPR839, Millar-Instruments, USA) and the catheter was advanced into the LV. Pressure–volume loops were obtained at baseline and during loading by gently occluding the abdominal aorta. LV end-systolic and end-diastolic pressures, dP/dtmax/min, LV relaxation constant tau and were measured/calculated with IOX software (EMKA, France). Systolic BP was measured by tail-cuff plethysmography in trained conscious mice at weeks 8–10 using a BP2000 Visitech model. BP was measured every day in the same room at the same hour for 5 consecutive days. The BP measurements (expressed as mmHg) presented are the averages of the last 3 days.
Chronic kidney disease (CKD) was induced by subtotal nephrectomy in 8-weeks-old male mice (25–26 g). All surgeries were performed under ketamine/xylazine anaesthesia. Briefly, the left kidney was exposed, and the upper and lower poles were tied with a poly-glycolic acid suture line. The peritoneum and skin were then sutured, and the animals were returned to their individual cages. After 1 week of recovery, the second kidney was removed. Removal of the second kidney represents T0. Sham mice were subjected to the same surgical procedures but neither renal poles nor the right kidney were removed. Mice were monitored for any sign of distress, and those observed to be experiencing severe, unrelievable pain were euthanized. Renal failure was assessed by the measure of plasma creatinine and urea with an automatic analyser (Konelab 20i; Thermo Fisher Scientific, Vernon Hills, IL) at weeks 4 and 8 post-Nx.
In the MI model, heart was harvested after hemodynamics and the atria and the ventricles were separated and weighed individually. A section of the left ventricle was immersed in Bouin fixative solution. In the CKD model, kidneys were harvested and a section was immersed in paraformaldehyde fixative solution. After fixation, the sections were dehydrated and embedded in paraffin. From these sections, 5-μm thick histologic slices were obtained and were stained with Sirius Red. For the measurement of cardiac or renal collagen density, slides were examined and photographed under a light microscope (Zeiss) at 40× magnification. Collagen content was calculated as percentage of collagen area to total area of the image. Perivascular collagen was excluded from the analysis. For tubular lesions scoring, kidney slides were stained with Periodic Acid-Schiff kit (Sigma) and the score of tubules with injury (epithelial cell necrosis and detachment, and tubular dilation) was analyzed blinded to the experimental groups.
Frozen tissues (kidneys, heart) were homogenized in TRIzol (Life Technologies, Illinois, USA) using FastPrep beads (MP-Bio, CA, USA). cDNAs were generated using the Superscript II reverse transcriptase kit (Invitrogen,NY, USA), and qPCR was performed as previously described. Briefly, transcript levels were analysed in a CFX396 apparatus (Biorad). The reactions were performed in duplicate for each sample using the IQ SYBR Green supermix Kit (Biorad,CA, USA). To normalize gene expression, the geometric mean of multiple internal reference genes were used (RS16, Ubc, Hprt and Gapdh for mice experiments). Values in control conditions were set as 1 for each gene. The sequences of the specific primers are detailed in Table S8.

T1 sequence (P80188 21-198): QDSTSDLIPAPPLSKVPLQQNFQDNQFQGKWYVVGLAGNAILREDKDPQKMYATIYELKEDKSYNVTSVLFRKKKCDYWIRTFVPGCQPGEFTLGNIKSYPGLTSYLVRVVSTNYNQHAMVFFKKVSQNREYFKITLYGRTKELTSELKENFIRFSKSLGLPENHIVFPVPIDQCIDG

CC(=O)c1cccc(S(=O)(=O)NCc2ccccc2-n2cccn2)c1 [GPZ614741]
hNGAL-induced cell proliferation, in words ([1]; 10 µM, Fig. 1E): blocked | Dose–response on proliferation induced by NGAL ([1]; Fig. S2): able to block the proliferative effects of NGAL at 1 and 10 µM, but not at lower concentrations | KW/TL (kidney weight/tibia length) ([2]; GP1 100 mg/kg/day, two months, CKD untreated 11.5 ± 0.42): 11.3 ± 0.23 mg/mm | Plasma urea level ([2]; GP1 100 mg/kg/day, two months, CKD untreated 15.2 ± 0.36): 16.74 ± 1.86 mM | Plasma creatinine level ([2]; GP1 100 mg/kg/day, two months, CKD untreated 21.5 ± 1.45): 20.4 ± 1.54 | SBP (systolic blood pressure) ([2]; GP1 100 mg/kg/day, two months, CKD untreated 139.3 ± 2.22): 122.1 ± 2.58 mmHg | Increased expression of profibrotic markers (Col I, fibronectin, αSMA) ([2]; kidney mRNA, Fig. 4C): blunted | Functional parameters: plasma levels of urea or creatinine, in words ([2]; one and two months after CKD induction): no impact | Increase in blood pressure, in words ([2]; two months of GP1): prevented the increase | Renal tubulointerstitial fibrosis (Sirius red) ([2]; two months of GP1, Fig. 4A): strong antifibrotic effect | Tubular injury (tubular lesion scoring, PAS) ([2]; × 3.1 in CKD vs. Sham, Fig. 4B): prevented
